The values that follow come from patent publication US8216610B2, “Oral paracetamol formulations” (Imaginot Pty Ltd., priority 2004, dated 2012).

Converted amounts (≈) assume the structure as drawn. Counter-ions that a name gives are not always drawn.

The nature of series [1]: Solubility in water. Format: physicochemical. The following applies: on a weight for weight basis; doses of the combination tablet.
For series [2] the following is noted: cited from earlier work.
For series [3] the following is noted: cited from earlier work. This is another data set of the same source.

With `CC(=O)Nc1ccc(O)cc1` [paracetamol, N-acetyl-p-aminophenol], the “volume needed for total dissolution of the dose” value in series [1] is “around 27 mL”. Further, in series [2], the “dependence of solubility on pH” value is reported as “independent of the pH” and the solubility in water is on record as roughly 14 mg/mL (≈ 92.6 mM). Also, the “paracetamol concentration effective for antipyresis” value in series [3] (Rumack et al 1978) was 10 to 20 µg/mL. For the same molecule, in series [3] (humans, Prescott 1974), the “range of paracetamol plasma concentrations for effective analgesia” value is 5 to 20 µg/mL.
`COc1cccc(C2(O)CCCCC2CN(C)C)c1` (centres unmarked) [tramadol hydrochloride]: the “volume needed for total dissolution of the dose” value in series [1] is on record as “around 1 mL”. Further, in series [2], the “dependence of solubility on pH” value is “reduced as the pH increases” and the solubility in water result is “around 30 mg/mL”.
